Assay results: patent publication US20060172996A1, “Method of preventing relapse in the abstinent substance dependent individual” (priority 2005, published 2006)

Tested on: otherwise abstinent person
Test: Human use of Flumazenil during a period of urges for a substance of abuse
Type: in vivo
Settings: placed into the blood stream as quickly as possible during a period of urges
Source text: While an IV might accomplish the above noted task, it is not realistic for a person, after having undergone detoxification, to have repeated IV therapies daily, to prevent a relapse so as not become substance abuse dependent again. Such a person would have to go to a treatment location where an IV can be administered.

CCOC(=O)c1ncn2c1CN(C)C(=O)c1cc(F)ccc1-2 [Flumazenil]
Urge for a substance of abuse such as alcohol: the urge will disappear
